Reference: PubChem BioAssay AID1963432 (Molecular Pharmacology Branch, DTP, NCI, 2024)

System: SYO-1 complex spheroid growth, percent test/control
Assay: Anticancer human tumor SYO-1 cell line growth inhibition [Asc];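 also: compound exposure lasted 7 days after spheroids grew 3 days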;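 as to viability, T/C: 100% = DMSO vehicle control viability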
Conditions: for IC50: curve of first compound; for viability, T/C: stronger effect = lower value
Summary of the method: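 Tumor cells were grown as complex spheroids with human endothelial cells (HUVEC) and human mesenchymal stem cells as stroma. Agents were tested alone and in combination, in half-log steps down from the clinical Cmax, or from 10 microM where Cmax was unknown.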

[1] = second compound 0.0316 µM, first compound 0.00316 µM
[2] = second compound 0.0316 µM, first compound 0.01 µM
[3] = second compound 0.0316 µM, first compound 0.0316 µM
[4] = second compound 0.0316 µM, first compound 0.1 µM
[5] = second compound 0.0316 µM, first compound 0.316 µM
[6] = second compound 0.0316 µM, first compound 1 µM
[7] = second compound 0.1 µM, first compound 0.00316 µM
[8] = second compound 0.1 µM, first compound 0.01 µM
[9] = second compound 0.1 µM, first compound 0.0316 µM
[10] = second compound 0.1 µM, first compound 0.1 µM
[11] = second compound 0.1 µM, first compound 0.316 µM
[12] = second compound 0.1 µM, first compound 1 µM
[13] = second compound 0.316 µM, first compound 0.00316 µM
[14] = second compound 0.316 µM, first compound 0.01 µM
[15] = second compound 0.316 µM, first compound 0.0316 µM
[16] = second compound 0.316 µM, first compound 0.1 µM
[17] = second compound 0.316 µM, first compound 0.316 µM
[18] = second compound 0.316 µM, first compound 1 µM
[19] = second compound 1 µM, first compound 0.00316 µM
[20] = second compound 1 µM, first compound 0.01 µM
[21] = second compound 1 µM, first compound 0.0316 µM
[22] = second compound 1 µM, first compound 0.1 µM
[23] = second compound 1 µM, first compound 0.316 µM
[24] = second compound 1 µM, first compound 1 µM
[25] = second compound 3.16 µM, first compound 0.00316 µM
[26] = second compound 3.16 µM, first compound 0.01 µM
[27] = second compound 3.16 µM, first compound 0.0316 µM
[28] = second compound 3.16 µM, first compound 0.1 µM
[29] = second compound 3.16 µM, first compound 0.316 µM
[30] = second compound 3.16 µM, first compound 1 µM
[31] = second compound 10 µM, first compound 0.00316 µM
[32] = second compound 10 µM, first compound 0.01 µM
[33] = second compound 10 µM, first compound 0.0316 µM
[34] = second compound 10 µM, first compound 0.1 µM
[35] = second compound 10 µM, first compound 0.316 µM
[36] = second compound 10 µM, first compound 1 µM

Question: With CCN1CCN(Cc2ccc(Nc3ncc(F)c(-c4cc(F)c5nc(C)n(C(C)C)c5c4)n3)nc2)CC1 + Cc1c(S(C)(=O)=O)c(-c2cc(F)cc(N3CCN(c4ccc(NS(=O)(=O)c5ccc(NC(CCN6CCC(C(=O)OCCCP(=O)(O)O)CC6)CSc6ccccc6)c(S(=O)(=O)C(F)(F)F)c5)cc4)CC3)c2)c(-c2ccc(Cl)cc2)n1C(C)C as the molecule, how does the IC50 (second compound 0.0316 µM) read?
Answer: > 1000 nM

Question: What about the IC50 (second compound 0.1 µM) of the same molecule?
Answer: > 1000 nM

Question: What about the IC50 (second compound 0.316 µM) of the same molecule?
Answer: > 1000 nM

Question: And the IC50 (second compound 1 µM)?
Answer: > 1000 nM

Question: And the IC50 (second compound 3.16 µM)?
Answer: > 1000 nM

Question: What about the IC50 (second compound 10 µM) of the same molecule?
Answer: > 1000 nM

Question: And the viability, T/C [1]?
Answer: 102%

Question: And the viability, T/C [2]?
Answer: 99.2%

Question: What about the viability, T/C [3] of the same molecule?
Answer: 109%

Question: And the viability, T/C [4]?
Answer: 111%

Question: And the viability, T/C [5]?
Answer: 121%

Question: What about the viability, T/C [6] of the same molecule?
Answer: 106%

Question: And the viability, T/C [7]?
Answer: 99.8%

Question: And the viability, T/C [8]?
Answer: 101%

Question: What about the viability, T/C [9] of the same molecule?
Answer: 97.8%

Question: And the viability, T/C [10]?
Answer: 113%

Question: What about the viability, T/C [11] of the same molecule?
Answer: 116%

Question: What about the viability, T/C [12] of the same molecule?
Answer: 109%

Question: What about the viability, T/C [13] of the same molecule?
Answer: 103%

Question: And the viability, T/C [14]?
Answer: 99.1%

Question: What about the viability, T/C [15] of the same molecule?
Answer: 108%

Question: And the viability, T/C [16]?
Answer: 108%

Question: What about the viability, T/C [17] of the same molecule?
Answer: 114%

Question: What about the viability, T/C [18] of the same molecule?
Answer: 99.4%

Question: And the viability, T/C [19]?
Answer: 99.7%

Question: What about the viability, T/C [20] of the same molecule?
Answer: 105%

Question: And the viability, T/C [21]?
Answer: 103%

Question: And the viability, T/C [22]?
Answer: 106%

Question: And the viability, T/C [23]?
Answer: 115%

Question: What about the viability, T/C [24] of the same molecule?
Answer: 95.1%

Question: What about the viability, T/C [25] of the same molecule?
Answer: 92.7%

Question: And the viability, T/C [26]?
Answer: 93.7%

Question: What about the viability, T/C [27] of the same molecule?
Answer: 110%

Question: And the viability, T/C [28]?
Answer: 107%

Question: What about the viability, T/C [29] of the same molecule?
Answer: 110%

Question: What about the viability, T/C [30] of the same molecule?
Answer: 92.2%

Question: And the viability, T/C [31]?
Answer: 87.5%

Question: And the viability, T/C [32]?
Answer: 82.5%

Question: What about the viability, T/C [33] of the same molecule?
Answer: 80%

Question: What about the viability, T/C [34] of the same molecule?
Answer: 94.2%

Question: And the viability, T/C [35]?
Answer: 101%

Question: What about the viability, T/C [36] of the same molecule?
Answer: 86.6%

Question: Which IC50 (second compound 0.0316 µM) does the source give for Cn1ncnc1[C@H]1c2n[nH]c(=O)c3cc(F)cc(c23)N[C@@H]1c1ccc(F)cc1 + Cc1c(S(C)(=O)=O)c(-c2cc(F)cc(N3CCN(c4ccc(NS(=O)(=O)c5ccc(NC(CCN6CCC(C(=O)OCCCP(=O)(O)O)CC6)CSc6ccccc6)c(S(=O)(=O)C(F)(F)F)c5)cc4)CC3)c2)c(-c2ccc(Cl)cc2)n1C(C)C here?
Answer: 19.3 nM

Question: And the IC50 (second compound 0.1 µM)?
Answer: 18.1 nM

Question: What about the IC50 (second compound 0.316 µM) of the same molecule?
Answer: 15.3 nM

Question: What about the IC50 (second compound 1 µM) of the same molecule?
Answer: 10.2 nM

Question: And the IC50 (second compound 3.16 µM)?
Answer: 5.98 nM

Question: What about the IC50 (second compound 10 µM) of the same molecule?
Answer: 4.59 nM

Question: What about the viability, T/C (second compound 0.0316 µM, first compound 0.000316 µM) of the same molecule?
Answer: 108%

Question: What about the viability, T/C (second compound 0.0316 µM, first compound 0.001 µM) of the same molecule?
Answer: 96.5%

Question: And the viability, T/C [1]?
Answer: 99.6%

Question: What about the viability, T/C [2] of the same molecule?
Answer: 80%

Question: And the viability, T/C [3]?
Answer: 27.4%

Question: What about the viability, T/C [4] of the same molecule?
Answer: 6.64%

Question: What about the viability, T/C (second compound 0.1 µM, first compound 0.000316 µM) of the same molecule?
Answer: 97.6%

Question: And the viability, T/C (second compound 0.1 µM, first compound 0.001 µM)?
Answer: 99%

Question: And the viability, T/C [7]?
Answer: 87.1%

Question: And the viability, T/C [8]?
Answer: 85.2%

Question: And the viability, T/C [9]?
Answer: 17.2%

Question: What about the viability, T/C [10] of the same molecule?
Answer: 4.83%

Question: What about the viability, T/C (second compound 0.316 µM, first compound 0.000316 µM) of the same molecule?
Answer: 97.1%

Question: And the viability, T/C (second compound 0.316 µM, first compound 0.001 µM)?
Answer: 95.4%

Question: What about the viability, T/C [13] of the same molecule?
Answer: 94.5%

Question: And the viability, T/C [14]?
Answer: 73.6%

Question: And the viability, T/C [15]?
Answer: 9.3%

Question: What about the viability, T/C [16] of the same molecule?
Answer: 3.79%

Question: What about the viability, T/C (second compound 1 µM, first compound 0.000316 µM) of the same molecule?
Answer: 93.4%

Question: What about the viability, T/C (second compound 1 µM, first compound 0.001 µM) of the same molecule?
Answer: 98.6%

Question: What about the viability, T/C [19] of the same molecule?
Answer: 88.6%

Question: What about the viability, T/C [20] of the same molecule?
Answer: 51.5%

Question: And the viability, T/C [21]?
Answer: 7.18%

Question: What about the viability, T/C [22] of the same molecule?
Answer: 3.35%

Question: What about the viability, T/C (second compound 3.16 µM, first compound 0.000316 µM) of the same molecule?
Answer: 97.2%

Question: And the viability, T/C (second compound 3.16 µM, first compound 0.001 µM)?
Answer: 89.5%

Question: What about the viability, T/C [25] of the same molecule?
Answer: 80.1%

Question: What about the viability, T/C [26] of the same molecule?
Answer: 26%

Question: What about the viability, T/C [27] of the same molecule?
Answer: 4.8%

Question: And the viability, T/C [28]?
Answer: 2.64%

Question: And the viability, T/C (second compound 10 µM, first compound 0.000316 µM)?
Answer: 85.9%

Question: And the viability, T/C (second compound 10 µM, first compound 0.001 µM)?
Answer: 90%

Question: What about the viability, T/C [31] of the same molecule?
Answer: 65.6%

Question: And the viability, T/C [32]?
Answer: 16.4%

Question: What about the viability, T/C [33] of the same molecule?
Answer: 3.2%

Question: And the viability, T/C [34]?
Answer: 2.36%

Question: With O=C(c1ccc(F)c(F)c1Nc1ccc(I)cc1F)N1CC(O)([C@@H]2CCCCN2)C1 + Cc1c(S(C)(=O)=O)c(-c2cc(F)cc(N3CCN(c4ccc(NS(=O)(=O)c5ccc(NC(CCN6CCC(C(=O)OCCCP(=O)(O)O)CC6)CSc6ccccc6)c(S(=O)(=O)C(F)(F)F)c5)cc4)CC3)c2)c(-c2ccc(Cl)cc2)n1C(C)C as the molecule, how does the IC50 (second compound 0.0316 µM) read?
Answer: > 1000 nM

Question: What about the IC50 (second compound 0.1 µM) of the same molecule?
Answer: > 1000 nM

Question: What about the IC50 (second compound 0.316 µM) of the same molecule?
Answer: > 1000 nM

Question: And the IC50 (second compound 1 µM)?
Answer: > 1000 nM

Question: And the IC50 (second compound 3.16 µM)?
Answer: > 1000 nM

Question: What about the IC50 (second compound 10 µM) of the same molecule?
Answer: > 1000 nM

Question: What about the viability, T/C [1] of the same molecule?
Answer: 98.2%

Question: What about the viability, T/C [2] of the same molecule?
Answer: 102%

Question: And the viability, T/C [3]?
Answer: 106%

Question: And the viability, T/C [4]?
Answer: 99.6%

Question: And the viability, T/C [5]?
Answer: 110%

Question: What about the viability, T/C [6] of the same molecule?
Answer: 113%

Question: And the viability, T/C [7]?
Answer: 95.3%

Question: What about the viability, T/C [8] of the same molecule?
Answer: 101%

Question: And the viability, T/C [9]?
Answer: 97.1%

Question: What about the viability, T/C [10] of the same molecule?
Answer: 102%

Question: And the viability, T/C [11]?
Answer: 103%

Question: What about the viability, T/C [12] of the same molecule?
Answer: 99.8%

Question: What about the viability, T/C [13] of the same molecule?
Answer: 95.7%

Question: And the viability, T/C [14]?
Answer: 93.6%

Question: And the viability, T/C [15]?
Answer: 94.2%

Question: And the viability, T/C [16]?
Answer: 106%

Question: What about the viability, T/C [17] of the same molecule?
Answer: 99%

Question: And the viability, T/C [18]?
Answer: 104%

Question: What about the viability, T/C [19] of the same molecule?
Answer: 91.6%

Question: What about the viability, T/C [20] of the same molecule?
Answer: 89.5%

Question: What about the viability, T/C [21] of the same molecule?
Answer: 100%

Question: And the viability, T/C [22]?
Answer: 98.9%

Question: What about the viability, T/C [23] of the same molecule?
Answer: 102%

Question: What about the viability, T/C [24] of the same molecule?
Answer: 97.1%

Question: And the viability, T/C [25]?
Answer: 91.9%

Question: What about the viability, T/C [26] of the same molecule?
Answer: 92.1%

Question: And the viability, T/C [27]?
Answer: 87.2%

Question: And the viability, T/C [28]?
Answer: 99.8%

Question: And the viability, T/C [29]?
Answer: 101%

Question: What about the viability, T/C [30] of the same molecule?
Answer: 93.4%

Question: What about the viability, T/C [31] of the same molecule?
Answer: 85.8%

Question: And the viability, T/C [32]?
Answer: 81.3%

Question: What about the viability, T/C [33] of the same molecule?
Answer: 92.2%

Question: What about the viability, T/C [34] of the same molecule?
Answer: 85.6%

Question: And the viability, T/C [35]?
Answer: 71.8%

Question: What about the viability, T/C [36] of the same molecule?
Answer: 67.6%
